Test results published in patent US8937090B2, “Parakeratosis inhibitor, pore-shrinking agent and external composition for skin” (Shiseido Company, Ltd., priority 2005, dated 2015).

Assays:
hairless mouse (HR-1) = assay: Parakeratosis-inhibiting effect test (oleic acid applied to back of hairless mouse; visual rough skin evaluation and parakeratosis value); assay type: in vivo; conditions: for parakeratosis-inhibiting effect: in words, summary of Table 1; for Visual evaluation (average of four animals): rough skin score, control = 2.0, no skin roughness = 0.0, 3 days application after 10 mass % oleic acid; for Parakeratosis value (average of four animals): scale 1.0 to 3.0, higher = parakeratosis advanced, control 2.0
Method: Aqueous solutions (containing 30 mass % of ethanol) of 3 mass % of a β-alanine derivative or salt thereof were prepared mainly as the evaluation sample. The pH was regulated by hydrochloric acid or sodium hydroxide so as to be 7.0 to 7.5. When sample solubility was low, the solution was prepared accordingly.
100 μL of 10 mass % oleic acid solution (solvent: ethanol) were applied to the back of a hairless mouse (HR-1; Hoshino Laboratory Animals). Then the sample solution (β-alanine derivative, and the like) was applied 100 μL at a time. This procedure was continued for three days. […] At the same time, the stratum corneum at the back of the hairless mouse was peeled off with tape, the nuclei were stained by hematoxylin, and the degree of parakeratosis was observed and evaluated by a parakeratosis value within a range of 1.0 to 3.0 (in 0.25 increments).

panel of 20 women = assay: Sensory irritation tests; assay type: in vivo, human; conditions: for sensory irritation: in words, summary of Table 4; for Evaluation (sensory irritation, class of average rating): 1 mL to cheek, rated for ten minutes
Method: 1 mL of a control aqueous solution and the sample aqueous solution prepared in Example 1 were applied using a cotton swab to the left or right cheek, respectively, of each member of a panel of 20 women, and the irritating sensation was evaluated every 30 seconds for ten minutes beginning immediately after application, whereby a final evaluation was reported. The evaluation of the irritating sensation was made based on the following four levels of rating criteria, and the average rating was calculated, whereby the average was classified by the following criteria.
3: Continuation is not possible because of extremely strong irritation, such as tingling sensation, burning sensation, stinging sensation, itching, and the like.
2: Intolerable because of strong irritation, such as tingling sensation, burning sensation, stinging sensation, itching, and the like.
1: Tolerable, but with slight irritation such as tingling sensation, burning sensation, stinging sensation, itching, and the like.
0: Not particularly irritating.
(Evaluation Criteria) • A: average rating of less than 0.2 • B: average rating of from 0.2 to less than 1.0 • C: average rating of from 1.0 to less than 2.0 • D: average rating of 2.0 or greater

[1] = system: cheeks of healthy human males; assay: Human pore-shrinking effect (replica of cheek pores, three-dimensional laser scanning microscope); assay type: in vivo; conditions: for pore-shrinking effect: in words, summary of Table 2; for Replica assessment value (average of n = 5): twice a day for one month, pore size rating (1-13) after minus before application, control 0.3
Method: An experiment was conducted whereby a sample was applied twice a day for one month to the cheeks of healthy human males in groups of 5 men each. Aqueous solutions (containing 15 mass % of ethanol) of 3 mass % of the β-alanine derivative or a salt thereof were prepared mainly as the evaluation sample. The pH was regulated by hydrochloric acid or sodium hydroxide so as to be 7.0 to 7.5. When the sample solubility was low, the solution was prepared accordingly. The control was an aqueous 15% ethanol solution. The sample aqueous solution and the control aqueous solution were applied to one half of the face at a time.
A replica was collected before and after continuous application, and changes in the shape of the pores at the same site were observed using a three-dimensional laser scanning microscope. The size of the pores was visually evaluated in the 13 steps of 1 through 13 (with the pores becoming larger as the numbers became larger), the difference in the ratings before and after application (after application—before application) was calculated, and the efficacy of each sample was studied using this difference as the replica assessment value.

hairless mice (HR-1) = assay: Inhibiting effect on rough skin induced by oleic acid application (transepidermal water loss); assay type: in vivo, mouse; design: ΔTEWL value: unit not given here; conditions: for rough skin preventing/ameliorating effect (ΔTEWL value versus control aqueous solution): in words, summary of Table 3; for ΔTEWL value: average of four mice, 3 days after 10 mass % oleic acid, control 12.0, increase = rough skin worse
Method: In order to investigate the inhibiting effect of β-alanine derivatives and salts thereof on rough skin induced by oleic acid application, the transepidermal water loss (TEWL value) before and after application was measured, the difference was compared with the control (control aqueous solution), and the effect was determined. […] The TEWL was determined using the TM210 TEWA Meter (Courage+Khazaka Electronic GmBH).
100 μL of 10 mass % oleic acid (solvent: ethanol) was applied to the back of hairless mice (HR-1, four mice per group). Then a sample solution (β-alanine derivatives) was applied 100 μL at a time. This procedure was continued for three days. On the following day, the TEWL value of the back was determined and the values of the four animals were averaged.

COc1cccc(C(=O)NCCC(=O)O)c1 [N-(3′-methoxybenzoyl)-β-alanine]
parakeratosis-inhibiting effect (hairless mouse (HR-1)): reduced the parakeratosis value
Visual evaluation (average of four animals) (hairless mouse (HR-1); sample 3 mass %): 1.2
Parakeratosis value (average of four animals) (hairless mouse (HR-1); sample 3 mass %): 1.2
sensory irritation (panel of 20 women): no problem of sensory irritation
Evaluation (sensory irritation, class of average rating) (panel of 20 women; sample 3 mass %): A (average rating of less than 0.2)
pore-shrinking effect [1]: effect was seen
Replica assessment value (average of n = 5) ([1]; sample 3 mass %): −1.0
rough skin preventing/ameliorating effect (ΔTEWL value versus control aqueous solution) (hairless mice (HR-1)): effect was seen
ΔTEWL value (hairless mice (HR-1); sample 3 mass %): 6.9

COc1cc(C(=O)NCCC(=O)O)cc(OC)c1OC [N-(3′,4′,5′-trimethoxybenzoyl)-β-alanine]
parakeratosis-inhibiting effect (hairless mouse (HR-1)): reduced the parakeratosis value
Visual evaluation (average of four animals) (hairless mouse (HR-1); sample 3 mass %): 1.1
Parakeratosis value (average of four animals) (hairless mouse (HR-1); sample 3 mass %): 1.1
sensory irritation (panel of 20 women): no problem of sensory irritation
Evaluation (sensory irritation, class of average rating) (panel of 20 women; sample 3 mass %): A (average rating of less than 0.2)
pore-shrinking effect [1]: effect was seen
Replica assessment value (average of n = 5) ([1]; sample 3 mass %): −0.6
rough skin preventing/ameliorating effect (ΔTEWL value versus control aqueous solution) (hairless mice (HR-1)): effect was seen
ΔTEWL value (hairless mice (HR-1); sample 3 mass %): 6.9

O=C(O)CCN1CCCCC1 [3-(1′-piperidine)-propionate, 3-(1′-piperidine)-propionic acid]
parakeratosis-inhibiting effect (hairless mouse (HR-1)): reduced the parakeratosis value
Visual evaluation (average of four animals) (hairless mouse (HR-1); sample 3 mass %): 1.4
Parakeratosis value (average of four animals) (hairless mouse (HR-1); sample 3 mass %): 1.4
sensory irritation (panel of 20 women): no problem of sensory irritation
Evaluation (sensory irritation, class of average rating) (panel of 20 women; sample 3 mass %): A (average rating of less than 0.2)
pore-shrinking effect [1]: effect was seen
Replica assessment value (average of n = 5) ([1]; sample 3 mass %): −1.2
rough skin preventing/ameliorating effect (ΔTEWL value versus control aqueous solution) (hairless mice (HR-1)): effect was seen
ΔTEWL value (hairless mice (HR-1); sample 3 mass %): 5.5

Cl.NCCC(N)=O [β-alanine amide hydrochloride salt]
parakeratosis-inhibiting effect (hairless mouse (HR-1)): reduced the parakeratosis value
Visual evaluation (average of four animals) (hairless mouse (HR-1); sample 3 mass %): 1.3
Parakeratosis value (average of four animals) (hairless mouse (HR-1); sample 3 mass %): 1.3
sensory irritation (panel of 20 women): no problem of sensory irritation
Evaluation (sensory irritation, class of average rating) (panel of 20 women; sample 3 mass %): A (average rating of less than 0.2)
pore-shrinking effect [1]: effect was seen
Replica assessment value (average of n = 5) ([1]; sample 3 mass %): −0.3
rough skin preventing/ameliorating effect (ΔTEWL value versus control aqueous solution) (hairless mice (HR-1)): effect was seen
ΔTEWL value (hairless mice (HR-1); sample 3 mass %): 8.9

O=C(O)CCNc1ccccn1 [N-(2′-pyridyl)-β-alanine]
parakeratosis-inhibiting effect (hairless mouse (HR-1)): reduced the parakeratosis value
Visual evaluation (average of four animals) (hairless mouse (HR-1); sample 3 mass %): 1.4
Parakeratosis value (average of four animals) (hairless mouse (HR-1); sample 3 mass %): 1.3
sensory irritation (panel of 20 women): no problem of sensory irritation
Evaluation (sensory irritation, class of average rating) (panel of 20 women; sample 3 mass %): A (average rating of less than 0.2)
pore-shrinking effect [1]: effect was seen
Replica assessment value (average of n = 5) ([1]; sample 3 mass %): −0.8
rough skin preventing/ameliorating effect (ΔTEWL value versus control aqueous solution) (hairless mice (HR-1)): effect was seen
ΔTEWL value (hairless mice (HR-1); sample 3 mass %): 5.5

CC(=O)NCCC(=O)O [N-acetyl-β-alanine, reference compound]
parakeratosis-inhibiting effect (hairless mouse (HR-1)): effect was not seen
Visual evaluation (average of four animals) (hairless mouse (HR-1); sample 3 mass %): 1.8
Parakeratosis value (average of four animals) (hairless mouse (HR-1); sample 3 mass %): 1.7
rough skin preventing/ameliorating effect (ΔTEWL value versus control aqueous solution) (hairless mice (HR-1)): no effect was seen
ΔTEWL value (hairless mice (HR-1); sample 3 mass %): 12.1

COc1ccccc1C(=O)NCCC(=O)O [N-(2′-methoxybenzoyl)-β-alanine]
parakeratosis-inhibiting effect (hairless mouse (HR-1)): reduced the parakeratosis value
Visual evaluation (average of four animals) (hairless mouse (HR-1); sample 3 mass %): 1.1
Parakeratosis value (average of four animals) (hairless mouse (HR-1); sample 3 mass %): 1.1
sensory irritation (panel of 20 women): no problem of sensory irritation
Evaluation (sensory irritation, class of average rating) (panel of 20 women; sample 3 mass %): A (average rating of less than 0.2)
pore-shrinking effect [1]: effect was seen
Replica assessment value (average of n = 5) ([1]; sample 3 mass %): −0.9
rough skin preventing/ameliorating effect (ΔTEWL value versus control aqueous solution) (hairless mice (HR-1)): effect was seen
ΔTEWL value (hairless mice (HR-1); sample 3 mass %): 7.0

CNCCC(=O)O [N-methyl-β-alanine]
parakeratosis-inhibiting effect (hairless mouse (HR-1)): reduced the parakeratosis value
Visual evaluation (average of four animals) (hairless mouse (HR-1); sample 3 mass %): 1.1
Parakeratosis value (average of four animals) (hairless mouse (HR-1); sample 3 mass %): 1.2
sensory irritation (panel of 20 women): no problem of sensory irritation
Evaluation (sensory irritation, class of average rating) (panel of 20 women; sample 3 mass %): A (average rating of less than 0.2)
pore-shrinking effect [1]: effect was seen
Replica assessment value (average of n = 5) ([1]; sample 3 mass %): −1.0
rough skin preventing/ameliorating effect (ΔTEWL value versus control aqueous solution) (hairless mice (HR-1)): effect was seen
ΔTEWL value (hairless mice (HR-1); sample 3 mass %): 6.8

COc1ccc(C(=O)NCCC(=O)O)cc1 [N-(4′-methoxybenzoyl)-β-alanine]
parakeratosis-inhibiting effect (hairless mouse (HR-1)): reduced the parakeratosis value
Visual evaluation (average of four animals) (hairless mouse (HR-1); sample 1.5 mass %): 1.2
Parakeratosis value (average of four animals) (hairless mouse (HR-1); sample 1.5 mass %): 1.1
sensory irritation (panel of 20 women): no problem of sensory irritation
Evaluation (sensory irritation, class of average rating) (panel of 20 women; sample 1.5 mass %): A (average rating of less than 0.2)
pore-shrinking effect [1]: effect was seen
Replica assessment value (average of n = 5) ([1]; sample 1.0 mass %): −1.2
rough skin preventing/ameliorating effect (ΔTEWL value versus control aqueous solution) (hairless mice (HR-1)): effect was seen
ΔTEWL value (hairless mice (HR-1); sample 1.5 mass %): 5.7

C[C@H](N)C(=O)O [alanine, reference compound]
sensory irritation (panel of 20 women): strong sensory irritation
Evaluation (sensory irritation, class of average rating) (panel of 20 women; sample 3 mass %): D (average rating of 2.0 or greater)

N=C(N)NCCC(=O)O [3-guanidinopropionic acid, reference compound]
parakeratosis-inhibiting effect (hairless mouse (HR-1)): effect was not seen
Visual evaluation (average of four animals) (hairless mouse (HR-1); sample 3 mass %): 2.1
Parakeratosis value (average of four animals) (hairless mouse (HR-1); sample 3 mass %): 2.1
rough skin preventing/ameliorating effect (ΔTEWL value versus control aqueous solution) (hairless mice (HR-1)): no effect was seen
ΔTEWL value (hairless mice (HR-1); sample 3 mass %): 12.3

NC(=O)NCCC(=O)O [3-ureidopropionic acid, reference compound]
parakeratosis-inhibiting effect (hairless mouse (HR-1)): effect was not seen
Visual evaluation (average of four animals) (hairless mouse (HR-1); sample 3 mass %): 2.0
Parakeratosis value (average of four animals) (hairless mouse (HR-1); sample 3 mass %): 2.2
rough skin preventing/ameliorating effect (ΔTEWL value versus control aqueous solution) (hairless mice (HR-1)): no effect was seen
ΔTEWL value (hairless mice (HR-1); sample 3 mass %): 11.9
